In DBAASP:
≈ marks a conversion by molar mass, not a printed value. Each block holds one molecule with its values, some of them ahead of it.

Experiments:
Test in all cases: ≥ marks a high value that may be exact or a test limit, other limits are often not marked, values filed in µg/mL are converted to µM
Bacillus subtilis JC443 = tested on: Bacillus subtilis JC443
Escherichia coli JC113 = tested on: Escherichia coli JC113
[1] = tested on: Pseudomonas aeruginosa JC115
[2] = tested on: Staphylococcus aureus JC114
[3] = tested on: Candida tropicalis 092422
Escherichia coli K88 = tested on: Escherichia coli K88
[4] = tested on: Escherichia coli O157:H7 CICC 21530
[5] = tested on: Lacticaseibacillus rhamnosus 1.0911
[6] = tested on: Lacticaseibacillus rhamnosus 1.0936
[7] = tested on: Lacticaseibacillus rhamnosus 1.9021
[8] = tested on: Lacticaseibacillus rhamnosus 8014
[9] = tested on: Pseudomonas aeruginosa ATCC 27853
[10] = tested on: Pseudomonas aeruginosa PAO1
[11] = tested on: Salmonella enterica subsp. enterica serovar Choleraesuis CVCC 503
[12] = tested on: Salmonella enterica subsp. enterica serovar Pullorum C79-13
[13] = tested on: Salmonella enterica subsp. enterica serovar Typhimurium ATCC 14028
[14] = tested on: Staphylococcus aureus ATCC 29213
[15] = tested on: Staphylococcus aureus ATCC 43300
[16] = tested on: Staphylococcus epidermidis ATCC 12228
[17] = tested on: Streptococcus agalactiae BNCC 185941
[18] = tested on: Acinetobacter baumannii ATCC BAA-1605
[19] = tested on: Acinetobacter baumannii KCCM 1053
[20] = tested on: Bacillus subtilis KCTC 3068
[21] = tested on: Enterococcus faecalis ATCC 51575
[22] = tested on: Enterococcus faecalis KCCM 11814
[23] = tested on: Escherichia coli KCTC 1682
[24] = tested on: Pseudomonas aeruginosa CCARM 2180
[25] = tested on: Pseudomonas aeruginosa KCTC 1637
[26] = tested on: Salmonella typhimurium KCTC 1926
[27] = tested on: Staphylococcus aureus KCCM 40510
[28] = tested on: Staphylococcus aureus KCTC 1621
[29] = tested on: Staphylococcus epidermidis KCTC 1917
[30] = tested on: Escherichia coli ATCC 25922
[31] = tested on: Listeria monocytogenes KCTC 19111
[32] = tested on: Pseudomonas aeruginosa 3241
[33] = tested on: Pseudomonas aeruginosa 4007
[34] = tested on: Pseudomonas aeruginosa ATCC 15692
[35] = tested on: Pseudomonas aeruginosa CCARM 2073
[36] = tested on: Pseudomonas aeruginosa CCARM 2075
[37] = tested on: Staphylococcus aureus 3399
[38] = tested on: Staphylococcus aureus 3518
[39] = tested on: Staphylococcus aureus ATCC 25923
[40] = tested on: Staphylococcus aureus CCARM 3125
[41] = tested on: Staphylococcus aureus CCARM 3709
[42] = tested on: Legionella pneumophila Lens

Compound: NC(=O)[C@H](Cc1ccccc1)NC(=O)[C@@H]1CSSC[C@H](NC(=O)[C@H](Cc2ccccc2)NC(=O)[C@H](Cc2ccccc2)NC(=O)[C@@H](N)Cc2ccccc2)C(=O)N[C@@H](CO)C(=O)N[C@@H](CCCN=C(N)N)C(=O)N1 [FFFCSRCF]
MIC (Bacillus subtilis JC443): ≥ 171 µM | MIC (Escherichia coli JC113): ≥ 152 µM | MIC [1]: ≥ 157 µM | MIC [2]: ≥ 180 µM

Compound: CC(C)C[C@H](NC(=O)CNC(=O)[C@H](CC(C)C)NC(=O)[C@H](Cc1c[nH]c2ccccc12)NC(=O)[C@H](CC(C)C)NC(=O)CNC(=O)[C@H](CC(C)C)NC(=O)[C@H](CCCCN)NC(=O)[C@@H](N)CCCCN)C(=O)N[C@@H](CCCCN)C(=O)N[C@@H](CCCCN)C(N)=O [KKLGLWLGLKK]
MIC (Escherichia coli K88): 8 µM (≈ 10.3 µg/mL) | MIC [4]: 8 µM (≈ 10.3 µg/mL) | MIC [5]: ≥ 128 µM | MIC [6]: ≥ 128 µM | MIC [7]: ≥ 128 µM | MIC [8]: ≥ 128 µM | MIC [9]: 32 µM (≈ 41 µg/mL) | MIC [10]: 64 µM (≈ 82.1 µg/mL) | MIC [11]: ≥ 64 µM | MIC [12]: 8 µM (≈ 10.3 µg/mL) | MIC [13]: 64 µM (≈ 82.1 µg/mL) | MIC [14]: > 128 µM | MIC [15]: > 128 µM | MIC [16]: > 128 µM | MIC [17]: ≥ 128 µM

Compound: CC[C@H](C)[C@@H]1NC(=O)[C@H](CCCCN)NC(=O)[C@@H](NC(=O)[C@H](CC(C)C)NC(=O)[C@@H](N)CCCCN)CSSC[C@@H](C(=O)N[C@@H](CCCCN)C(=O)O)NC(=O)[C@H](C(C)C)NC(=O)[C@H](CCCCN)NC(=O)[C@H]([C@@H](C)CC)NC(=O)[C@H](C(C)C)NC(=O)[C@H](C(C)C)NC1=O [KLCKIVVIKVCK]
MIC [18]: ≥ 64 µM | MIC [19]: ≥ 64 µM | MIC [20]: ≥ 64 µM | MIC [21]: ≥ 64 µM | MIC [22]: ≥ 64 µM | MIC [23]: 8 µM (≈ 11 µg/mL) | MIC [24]: ≥ 64 µM | MIC [25]: ≥ 64 µM | MIC [26]: ≥ 64 µM | MIC [27]: ≥ 64 µM | MIC [28]: ≥ 64 µM | MIC [29]: ≥ 32 µM

Continued, values first:

MIC [3]: ≥ 71 µM
Compound: CC[C@H](C)[C@H](NC(=O)[C@H](C)NC(=O)[C@@H]1CCCN1C(=O)[C@@H](NC(=O)[C@@H](N)Cc1ccccc1)C(C)C)C(=O)N[C@@H](CC(C)C)C(=O)N[C@H]1CSSC[C@@H](C(=O)O)NC(=O)[C@H]([C@@H](C)O)NC(=O)[C@H](CCCCN)NC(=O)[C@H](CC(C)C)NC(=O)[C@H]([C@@H](C)CC)NC(=O)[C@H](CO)NC1=O [FVPAILCSILKTC]

MIC [30]: 1 µM (≈ 1.68 µg/mL) | MIC [31]: 2 µM (≈ 3.37 µg/mL) | MIC [32]: 2 µM (≈ 3.37 µg/mL) | MIC [33]: 2 µM (≈ 3.37 µg/mL) | MIC [34]: 2 µM (≈ 3.37 µg/mL) | MIC [35]: 2 µM (≈ 3.37 µg/mL) | MIC [36]: 1 µM (≈ 1.68 µg/mL) | MIC [26]: 2 µM (≈ 3.37 µg/mL) | MIC [37]: 2 µM (≈ 3.37 µg/mL) | MIC [38]: 2 µM (≈ 3.37 µg/mL) | MIC [39]: 2 µM (≈ 3.37 µg/mL) | MIC [40]: 2 µM (≈ 3.37 µg/mL) | MIC [41]: 2 µM (≈ 3.37 µg/mL) | MIC [29]: 1 µM (≈ 1.68 µg/mL)
Compound: CC(C)C[C@H](NC(=O)[C@H](Cc1c[nH]c2ccccc12)NC(=O)[C@H](CCCCN)NC(=O)[C@H](CCCCN)NC(=O)[C@H](CC(C)C)NC(=O)[C@H](Cc1c[nH]c2ccccc12)NC(=O)[C@H](CCCCN)NC(=O)[C@H](CCCCN)NC(=O)[C@H](CC(C)C)NC(=O)[C@H](Cc1c[nH]c2ccccc12)NC(=O)[C@@H](N)CCCCN)C(=O)N[C@@H](CCCCN)C(N)=O [KWLKKWLKKWLK]

MIC [42]: 1.85 µM (≈ 4.64 µg/mL)
Compound: CC[C@H](C)[C@H](NC(=O)[C@H](CC(C)C)NC(=O)CNC(=O)[C@H](CCCCN)NC(=O)[C@@H](NC(=O)[C@@H](NC(=O)[C@H](CCC(=O)O)NC(=O)[C@H](Cc1ccccc1)NC(=O)[C@@H](NC(=O)[C@H](CCCCN)NC(=O)[C@H](C)NC(=O)[C@@H](NC(=O)[C@@H](NC(=O)[C@H](CC(=O)O)NC(=O)[C@H](C)NC(=O)[C@@H](N)CCSC)C(C)C)[C@@H](C)CC)[C@@H](C)CC)[C@@H](C)CC)C(C)C)C(=O)N[C@@H](CC(=O)O)C(=O)N[C@@H](CCC(N)=O)C(=O)N[C@@H](Cc1ccccc1)C(=O)N[C@H](C(=O)N[C@@H](CCC(N)=O)C(=O)N[C@@H](CCCCN)C(=O)O)[C@@H](C)O [MADVIAKIFEIVKGLIDQFTQK]
